Test results as given in patent publication US9758477B2, “Sulfamoylbenzamide derivatives as antiviral agents against HBV infection” (priority 2011, dated 2017).

Tests used:
HBV mRNA = assay: Analysis of HBV mRNA by Northern blot in AML12HBV10 cells; assay type: cell-based, Hepatitis B virus (HBV); settings: 2 days, FIG. 3 panel A
Method: To obtain mechanistic insight of the compounds of present invention against HBV, AML12HBV10 cells cultured in the 12-well plates were treated with a series of concentrations of DVR-1, DVR-56 or DVR-23 for two days in the absence of tetracycline (Guo et al., 2007). As positive controls, the cells were also treated with Bay41-4109 (5 μM) or AT-61 (25 μM), the known HBV nucleocapsid assembly effectors that either bind to HBV core protein dimmer to misdirect its interaction and prevent capsid formation (Bay41-4109) (Deres et al., 2003: Stray and Zlotnick, 2006), or interact with a core assembly intermediate and promote the formation of empty capsids (AT-61) (Feld et al., 2007; Katen et al., King et al., 1998). The amounts of intracellular viral mRNA, encapsidated pgRNA, capsids and nucleocapsid-associated HBV DNA were analyzed with the methods detailed below.
Procedure for analysis of HBV mRNA: Upon the completion of treatment, total cellular RNA was extracted with TRIzol reagents (Invitrogen). Five micrograms of total RNA was resolved in 1.5% agarose gel containing 2.2 M formaldehyde and transferred onto Hybond-XL membrane in 20×SSC buffer. The amounts of HBV mRNA were determined by Northern blot hybridization with an alpha-^32P-UTP labeled riboprobe specific for plus strand of HBV genome.

HBV = assay: Antiviral activity in HepDES19 cells, core-associated HBV DNA by Southern blot hybridization; assay type: cell-based; settings: Hepatitis B virus, 144 h, Table 10, HepDES19 cells, 6 days, unit inferred; for EC90: HBV DNA reduced by 90%; for EC50: Southern blot
Method: FIG. 2 and Table 10, in human hepatoma-derived cell lines: To further confirm the antiviral activity of the compounds of the disclosure against HBV in human hepatocyte-derived cells, HepDES19 cells, a human hepatoma cell line supporting HBV replication in a tetracycline inducible manner (Guo et al., 2007), seeded into 12-well plates at a density of 5×10^5 cells per well and cultured in DMEM/F12 media with 10% fetal bovine serum and 1 μg/ml tetracycline. Two days after seeding, the cells were mock-treated or treated with a serial dilution of compounds of the disclosure, ranging from 10 μM to 0.018 μM, for 6 days in the absence of tetracycline. Upon the completion of treatment, cells were lysed by adding into each well of the 12-well plates 0.5 ml of lysis buffer containing 10 mM Tris-HCl (pH 8.0), 1 mM EDTA, 1% NP40 and 2% sucrose and incubating at 37° C. for 10 minutes. Cell debris and nuclei were removed by centrifugation and the supernatant was mixed with 130 μl of 35% polyethylene glycol (PEG) 8000 containing 1.5 M NaCl. After 1 hour incubation in ice, viral nucleocapsids were pelleted by centrifugation at 6,000×g for 5 min at 4° C., followed by 1 hour digestion at 37° C. in 400 μl of digestion buffer containing 0.5 mg/ml pronase (Calbiochem), 0.5% SDS, 150 mM NaCl, 25 mM Tris-HCl (pH 8.0) and 10 mM EDTA. The digestion mixture was extracted twice with phenol and DNA was precipitated with ethanol, dissolved in TE buffer (10 mM Tris-HCl, pH 8.0; 0.1 mM EDTA). One half of the DNA sample from each well was resolved by electrophoresis into a 1.5% agarose gel. The gel was then subjected to denaturation in a solution containing 0.5 M NaOH and 1.5 M NaCl, followed by neutralization in a buffer containing 1 M Tris-HCl (pH7.4) and 1.5 M NaCl. DNA was then blotted onto Hybond-XL membrane (GE Health care) in 20×SSC buffer. The amounts of cytoplasmic HBV core-associated HBV DNA were determined by Southern blot hybridization and the antiviral efficacy of a compound was expressed as its concentration that reduce the amount of HBV DNA by 50% (EC50) or 90% (EC90).

| SMILES | amount of viral mRNA (HBV mRNA) | EC90 (HBV) [nM] | EC50 (HBV) [nM] |
| --- | --- | --- | --- |
| CCC(C)NS(=O)(=O)c1ccc(F)c(C(=O)Nc2ccc(F)c(F)c2)c1 (stereo not drawn) [DVR-23, 5-sec-butylsulfamoyl-N-(3,4-difluoro-phenyl)-2-fluoro-benzamide] | did not affect | 860 | 280 |
| O=C(Nc1ccc(F)c(F)c1)c1cc(S(=O)(=O)NC2CCCC2)ccc1F [DVR-56, 5-cyclopentylsulfamoyl-N-(3,4-difluoro-phenyl)-2-fluoro-benzamide] | did not affect | 1850 | 420 |
